Experiments:
[1] = tested on: RNA having an intronic REMS sequence; assay: RNA sequencing of compound-treated cells: iExon inclusion or eExon formation (ΔPSI, Fisher's Exact Test); format: cell-based; conditions: cells treated with Compound 64 (24 nm and 100 nm); genes listed in Table 10; adjusted Fisher's Exact Test p value
Method: Techniques known to one skilled in the art may be used to determine the amount of an RNA transcript(s). In some aspects, the amount of one, two, three or more RNA transcripts is measured using deep sequencing, such as ILLUMINA® RNASeq, ILLUMINA® next generation sequencing (NGS), ION TORRENT® RNA next generation sequencing, 454™ pyrosequencing, or Sequencing by Oligo Ligation Detection (SOLID™), Single Molecule, Real-Time (SMRT) sequencing, Nanopore sequencing. In other aspects, the amount of multiple RNA transcripts is measured using an exon array, such as the GENECHIP® human exon array. In certain aspects, the amount of one, two, three or more RNA transcripts is determined by RT-PCR. In other aspects, the amount of one, two, three or more RNA transcripts is measured by RT-qPCR or digital color-coded barcode technology. Techniques for conducting these assays are known to one skilled in the art. […]
Where “U” represents the value for probability of iExon inclusion (a+b)/2/[(a+b)/2+c] in the absence of the compound; and, where “C” represents the value for probability of iExon inclusion (a+b)/2/[(a+b)/2+c] in the presence of the compound. The values for “a” and “b” represent the number of reads supporting inclusion of an iExon in an RNA transcript. […] The value for “c” represents the number of reads supporting exclusion of an iExon. […]

SH-SY5Y cells = assay: Endpoint RT-PCR of alternatively spliced mRNAs (iExon inclusion) in cultured cells; format: cell-based, human; conditions: cells treated at 10 nM, 1 μM or 10 μM vs DMSO; genes of FIGS. 2A-6A
Method: SH-SY5Y cells derived from a bone marrow biopsy of a patient with neuroblastoma were plated at 600,000 cells/well in 2 mL DMEM with 10% FBS in 6-well plates, and incubated for 4 hours in a cell culture incubator (37° C., 5% CO2, 100% relative humidity). Cells were then treated with Compound 64 at different concentrations (in 0.1% DMSO) for 24 hours. After removal of the supernatant, cells were lysed in RLT buffer with ß-mercaptoethanol and total RNA was extracted according to the manufacturer's protocol (RNeasy Mini Kit, Qiagen, Inc.).
One-step RT-PCR was performed using AgPath-ID™ One-Step RT-PCR Reagents (Life Technologies, Inc.) using 50 ng total RNA as input. The following PCR conditions were used: Step 1: 48° C. (15 min), Step 2: 95° C. (10 min), Step 3: 95° C. (30 sec), Step 4: 55° C. (30 sec), Step 5: 68° C. (1 min), repeat Steps 3 to 5 for 34 cycles, then hold at 4° C. The presence of iExons within alternatively spliced mRNAs was identified using primers listed in Tables 13 through 19, which correspond to FIGS. 2, 3, 4 and 5. PCR products were separated on 2% agarose E-gels (Life Technologies, Inc.), stained with ethidium bromide and visualized using a gel imager (UVP). […]

CC1(C)CC(Oc2ccc(-c3ccc(-c4cn[nH]c4)cc3O)nn2)CC(C)(C)N1 [Compound 64, 5-(1H-pyrazol-4-yl)-2-(6-((2,2,6,6-tetramethylpiperidin-4-yl)oxy)pyridazin-3-yl)phenol]
effect on inclusion of an iExon or formation of an eExon with a corresponding change in isoform abundance [1]: statistically significant
iExon-containing PCR product on agarose gel (SH-SY5Y cells): appearance of a slower migrating PCR product containing the intronic-derived exon

From patent publication US11608501B2, “Methods for modifying RNA splicing” (PTC THERAPEUTICS, INC., priority 2017, dated 2023)
